In article PMC7381729, “A new class of PentixaFor- and PentixaTher-based theranostic agents with enhanced CXCR4-targeting efficiency” (Theranostics, 2020):
Where two headings read alike, the source gives them in different places. Where a SMILES comes first, the peptide text is derived from it. Side-chain parts run from the residue outwards. [ ]: non-standard residue; d: D form. The star is where a group is joined. DOTA = O=C(O)CN1CCN(CC(=O)O)CCN(CC(=O)*)CCN(CC(=O)O)CC1; 2Nal = N[C@@H](Cc1ccc2ccccc2c1)C(=O)O; dNMeOrn = CN[C@H](CCCN)C(=O)O; 4Amb = NCc1ccc(C(=O)O)cc1

Experiments:
[1] = Small animal PET imaging in Daudi xenograft bearing mice; format: in vivo; settings: CB17 SCID, mouse, iv, total radioactivity, 90 min p.i., dynamic PET, ROI analysis, n=1 per compound
Experimental: (§1) Small aminal PET imaging studies were performed using a Siemens Inveon PET scanner. Animals were anesthetized with isoflurane and injected via the tail vein with 10 to 15 MBq (0.1 nmol) of the respective tracer. Dynamic imaging (n=1 per compound) was performed after on-bed injection for 1.5 h, and static images (n=1 per compound) were acquired at 1 h p.i. with an acquisition time of 15 min. Data analysis was performed using the Inveon Research Workplace software. Images were reconstructed using a 3D ordered-subsets expectation maximum (OSEM3D) algorithm without scanner and attenuation correction. Time-activity curves (Figure 4) were obtained by generating isocontour regions of interest (ROI) for the tumor and the heart content (as a surrogate for blood activity), as well as by defining two spherical ROIs (each 23.4 mm^3) in the thigh area (muscle) and areas of homogenous tracer uptake in the liver, followed by plotting of average activity ± SD per volume in these ROIs over time.  Figure 4 Results from small animal PET imaging using [^68Ga]PentixaFor (top row), [^68Ga]DOTA-r-a-ABA-CPCR4 (middle row) and [^68Ga]DOTA-r-a-ABA-iodoCPCR4 (bottom row) in Daudi xenograft bearing CB17 SCID mice. Images on the left (MIP) were obtained by static imaging (1h p.i., n=1), the time activity curves (TAC) on the right were acquired by dynamic PET imaging (0-90 min p.i., n=1).

[2] = tested on: Daudi xenograft bearing CB17 SCID mice; assay: as above; format: in vivo; settings: mouse, in vivo
Experimental: as §1

tissue uptake per volume at 1.5 h ([1]; kidney, read-out: Kidney uptake in PET): 2.7 ± 0.1 %ID/mL
tissue uptake per volume at 1.5 h ([1]; liver, average ± SD per volume in ROI, read-out: Liver uptake in PET): 1.8 ± 0.1 %ID/mL
tissue uptake per volume at 1.5 h ([1]; tumor (Daudi xenograft), Daudi xenograft, read-out: Tumor accumulation in PET): 14.3 ± 1.2 %ID/mL
Time at which tumor uptake plateaus (TAC) [2]: ~20 min p.i.
Structure (SMILES): CN1C(=O)[C@@H](Cc2ccc(O)cc2)NC(=O)CNC(=O)[C@H](Cc2ccc3ccccc3c2)NC(=O)[C@H](CCCNC(=N)N)NC(=O)[C@H]1CCCNC(=O)c1ccc(CNC(=O)CN2CCN(CC(=O)O)CCN(CC(=O)O)CCN(CC(=O)O)CC2)cc1 [[^68Ga]PentixaFor, cyclo(D-Tyr^1-D-[NMe]Orn^2(AMBS-[^68Ga]DOTA)-Arg^3-Nal^4-Gly^5), metal not drawn, reference compound] (cyclo([dY][dNMeOrn]([4Amb-DOTA])R[2Nal]G))
